Measurements reported in US12514900B2, “Method to identify responders to osteoarthritis therapeutics” (OrthoTrophix, Inc., priority 2020, dated 2026).
Where no end group is shown, it is not given here.

How the values were obtained:
subjects with knee OA [1] = conditions: cited from earlier work
human and rat bone cells = conditions: human and rat/murine orthologues; cited from earlier work
[2] = target: integrin αVβ3 expressed by osteocytes (Homo sapiens, UniProt P05106+P06756); conditions: cited from earlier work
Sequence of integrin αVβ3 expressed by osteocytes (P06756 31-889 limits assumed): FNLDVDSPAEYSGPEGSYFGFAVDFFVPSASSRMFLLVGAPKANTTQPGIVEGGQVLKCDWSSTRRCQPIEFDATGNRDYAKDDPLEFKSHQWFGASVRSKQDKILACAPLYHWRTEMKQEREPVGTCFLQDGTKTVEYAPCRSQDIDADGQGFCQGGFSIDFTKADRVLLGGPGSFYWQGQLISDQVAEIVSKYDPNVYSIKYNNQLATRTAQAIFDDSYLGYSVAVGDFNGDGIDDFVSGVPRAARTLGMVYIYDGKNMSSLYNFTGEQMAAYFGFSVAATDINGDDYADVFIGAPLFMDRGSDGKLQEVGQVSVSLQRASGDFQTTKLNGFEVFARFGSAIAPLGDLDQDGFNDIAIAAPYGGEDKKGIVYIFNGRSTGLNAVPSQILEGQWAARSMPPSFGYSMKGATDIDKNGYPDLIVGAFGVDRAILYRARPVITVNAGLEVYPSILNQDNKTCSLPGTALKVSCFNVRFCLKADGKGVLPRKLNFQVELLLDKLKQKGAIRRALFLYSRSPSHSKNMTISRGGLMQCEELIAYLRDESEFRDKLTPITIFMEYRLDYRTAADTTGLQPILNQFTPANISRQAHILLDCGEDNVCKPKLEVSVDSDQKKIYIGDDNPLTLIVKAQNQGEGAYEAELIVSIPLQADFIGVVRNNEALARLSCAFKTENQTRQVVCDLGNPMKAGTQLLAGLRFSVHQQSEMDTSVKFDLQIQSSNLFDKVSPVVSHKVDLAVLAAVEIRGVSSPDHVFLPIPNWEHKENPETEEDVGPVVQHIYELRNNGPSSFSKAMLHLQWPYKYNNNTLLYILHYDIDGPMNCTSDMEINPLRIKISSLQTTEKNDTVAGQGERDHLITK
Sequence of integrin αVβ3 expressed by osteocytes (P06756 891-1048 limits assumed): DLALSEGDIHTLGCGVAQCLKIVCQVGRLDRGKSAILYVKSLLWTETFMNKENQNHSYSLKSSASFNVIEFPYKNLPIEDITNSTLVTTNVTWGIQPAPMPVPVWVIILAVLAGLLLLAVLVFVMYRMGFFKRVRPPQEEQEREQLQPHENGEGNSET
Sequence of integrin αVβ3 expressed by osteocytes (P05106 27-788): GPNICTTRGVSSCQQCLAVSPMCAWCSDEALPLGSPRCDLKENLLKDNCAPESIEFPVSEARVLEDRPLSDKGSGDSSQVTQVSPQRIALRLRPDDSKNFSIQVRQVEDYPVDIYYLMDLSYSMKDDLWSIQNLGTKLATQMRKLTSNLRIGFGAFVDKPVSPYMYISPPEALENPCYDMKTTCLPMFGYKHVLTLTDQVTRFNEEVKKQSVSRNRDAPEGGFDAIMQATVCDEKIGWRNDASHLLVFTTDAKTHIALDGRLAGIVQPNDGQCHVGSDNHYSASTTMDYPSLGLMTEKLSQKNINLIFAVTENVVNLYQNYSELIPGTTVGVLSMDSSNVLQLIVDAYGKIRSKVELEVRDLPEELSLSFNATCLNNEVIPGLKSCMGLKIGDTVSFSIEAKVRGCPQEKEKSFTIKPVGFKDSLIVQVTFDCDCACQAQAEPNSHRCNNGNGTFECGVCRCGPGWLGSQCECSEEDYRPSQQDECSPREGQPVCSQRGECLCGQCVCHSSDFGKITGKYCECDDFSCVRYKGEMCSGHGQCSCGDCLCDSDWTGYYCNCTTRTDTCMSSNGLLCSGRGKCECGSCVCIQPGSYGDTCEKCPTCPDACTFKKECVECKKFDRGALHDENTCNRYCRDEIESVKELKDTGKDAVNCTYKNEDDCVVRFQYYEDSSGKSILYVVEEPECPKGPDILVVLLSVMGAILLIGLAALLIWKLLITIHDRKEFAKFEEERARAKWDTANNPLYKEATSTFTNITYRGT

[3] = system: subjects with bilateral knee osteoarthritis; conditions: human, in vivo
Protocol: Eighteen (18) orthopedic, rheumatologic and family practice centers in the U.S. participated in the study.
On the first dosing day, the randomized subjects were assessed by physical examinations and vital signs. Further, they completed the Knee injury and Osteoarthritis Outcome Score (KOOS), which includes the Western Ontario and McMaster Universities Osteoarthritis Index (WOMAC). The KOOS questionnaire assesses knee-specific activities of daily living, sports and recreation, knee-related quality of life, other symptoms such as stiffness, and knee pain. […] After assessments were completed, subjects received one intra-articular injection in each knee, with each injection prepared from the vial(s) marked for that knee. […] Subjects were monitored for adverse events during the injections and for a few hours after the injections. Vital signs were also monitored after the injections.
On the 7th, 14th, and 21st days after the first dosing, subjects received the second, third, and fourth (last) dosing of the same study materials, respectively. Safety and adverse event assessments were obtained as on the first dosing day.
Subjects returned to their respective study sites at 3, 6 and 12 months after the first dosing day for follow-up evaluations. In addition, the study sites monitored the subject's condition through telephone contact 9 months after the first dosing day. During the 3, 6, and 12 months post-treatment, subjects were evaluated on site with physical examinations, vital signs, serum chemistries, as well as completing patient-reported outcomes including the KOOS. Adverse events and concomitant medications were recorded. MRIs of both knees were obtained during the 6 and 12-month visits.

subjects with knee OA [4] = conditions: cited from earlier work; remark: listed apart in the source

O=P(O)(O)C(O)(Cc1cccnc1)P(=O)(O)O [risedronate]
Effects on pain (subjects with knee OA [1]; largest study, n=2483 (Bingham 2006)): favoring placebo over active drug

N#Cc1c(N(CC(=O)[O-])CC(=O)[O-])sc(C(=O)[O-])c1CC(=O)[O-].[Sr+2].[Sr+2] [strontium ranelate]
Risk of myocardial infarction (subjects with knee OA [1]; human, in vivo): increase the risk of myocardial infarction

PDLLVRGDNDVPPFSGDGQHFMH [SEQ ID No: 14]
Biological activities in bone cells of the other species (human and rat bone cells): interchangeably show biological activities in the bone cells of the other species

PDLQERGDNDISPFSGDGQPFKD [SEQ ID No: 12]
Binding to integrin αVβ3 [2]: selectively bind to integrin αVβ3

TDLQERGDNDISPFSGDGQPFKD [SEQ ID No: 10]
Safety and tolerability [3]: safe and well tolerated
Severe adverse events related to the peptide [3]: no severe adverse events
Treatment-related adverse events [3]: mild or moderate, transient

B1: Fibroblast Growth Factor-18 (protein, UniProt O76093 28-207, looked up)
Fibroblast growth factor 18: EENVDFRIHVENQTRARDDVSRKQLRLYQLYSRTSGKHIQVLGRRISARGEDGDKYAQLLVETDTFGSQVRIKGKETEFYLCMNRKGKLVGKPDGTSKECVFIEKVLENNYTALMSAKYSGWYVGFTKKGRPRKGPKTRENQQDVHFMKRYPKGQPELQKPFKYTTVTKRSRRIRPTHPA
notes: growth factor tested for cartilage regeneration in knee OA
Clinical outcomes such as knee function or pain vs placebo (subjects with knee OA [4]): no significant improvement
Tibiofemoral cartilage thickness (subjects with knee OA [4]): small but statistically significant increase
